# Assay results as given in patent US10501435B2, “Substituted quinazoline compounds and uses thereof for modulating glucocerebrosidase activity” (Northwestern University, priority 2015, dated 2019).
# Target: Glucocerebrosidase (Homo sapiens (Human), UniProt P04062)
# Test: Glucocerebrosidase activity assay with blue substrate (4MU-Glc)
# Format: biochemical
# Conditions: cells marked (act)
# Description: The compounds in DMSO solution 0.5 μL/well were transferred to a black 96-well plate. The final titration was 24 nM to 50 μM, 12 concentrations, 2 times dilution. […] After 5 min of incubation at room temperature, the enzyme reaction was initiated by the addition of 33 μL/well blue substrate. Final concentrations of the blue substrate (4MU-Glc) was 1.5 mM. The blue substrate reaction was terminated by the addition of 33 μL/well stop solution (1 M NaOH and 1 M glycine mixture, pH 10) after 30 min of incubation at 37° C. The fluorescence was then measured in the Biotek Synergy H1 multi-mode plate reader with Ex=365 nm and Em=440 nm.
# Additional compounds were prepared and tested according to the procedures provided in the examples above.
# Additional substituted quinazoline compounds were prepared and tested according to the procedures provided in the examples above.
# Glucocerebrosidase, sequence (P04062 40-536): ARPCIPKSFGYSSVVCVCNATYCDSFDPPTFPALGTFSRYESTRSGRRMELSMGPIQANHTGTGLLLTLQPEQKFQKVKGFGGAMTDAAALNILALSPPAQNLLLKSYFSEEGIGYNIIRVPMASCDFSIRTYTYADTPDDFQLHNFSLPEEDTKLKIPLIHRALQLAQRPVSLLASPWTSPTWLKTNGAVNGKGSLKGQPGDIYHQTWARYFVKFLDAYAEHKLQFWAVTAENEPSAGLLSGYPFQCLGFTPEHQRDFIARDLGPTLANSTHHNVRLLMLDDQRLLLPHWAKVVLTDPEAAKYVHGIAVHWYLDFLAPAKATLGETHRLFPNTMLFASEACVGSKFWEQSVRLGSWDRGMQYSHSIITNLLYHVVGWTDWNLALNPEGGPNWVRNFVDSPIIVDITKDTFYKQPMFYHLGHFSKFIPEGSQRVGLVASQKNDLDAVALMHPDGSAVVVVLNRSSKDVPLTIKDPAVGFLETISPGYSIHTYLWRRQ
row,IC50 or AC50 (μM): AC50 (act),Compound
1,Weak (act),Nc1nc(-c2cccnc2)nc2ccccc12 [compound 35]
2,Weak (act),[N-]=[N+]=Nc1c(F)c(F)c(CNc2nc(-c3cccnc3)nc3ccccc23)c(F)c1F [compound 37]
3,Weak (act),CN1CCN(c2ccc(C(=O)N3CCN(c4nc(-c5cccnc5)nc5ccccc45)CC3)cc2)CC1 [compound 38]
4,Weak (act),c1ccc(Nc2nc(-c3cccnc3)nc3ccccc23)cc1 [compound 50]
5,Weak (act),CC(C)(C)Nc1nc(-c2cccnc2)nc2ccccc12 [compound 54]
6,Weak (act),c1ccc(C2CCCN(c3nc(-c4cccnc4)nc4ccccc34)C2)cc1 (centres unmarked) [compound 82]

# Same assay, conditions: cells marked (act); read-out: IC50 or AC50 (μM): AC50 (act)
row,AC50 [µM],Compound
1,35.5,CN(Cc1ccccn1)c1nc(-c2cccnc2)nc2ccccc12 [compound 5]
2,11.2,CN(CC1COCCO1)c1nc(-c2cccnc2)nc2ccccc12 (centres unmarked) [compound 6]
3,12.6,CN(Cc1cccnc1)c1nc(-c2cccnc2)nc2ccccc12 [compound 7]
4,15.8,CN(Cc1ccncc1)c1nc(-c2cccnc2)nc2ccccc12 [compound 8]
5,14.1,CN(Cc1cnccn1)c1nc(-c2cccnc2)nc2ccccc12 [compound 9]
6,0.89,CN(Cc1cnc2ccccc2n1)c1nc(-c2cccnc2)nc2ccccc12 [compound 10]
7,1,CN(Cc1ccc2c(c1)OCO2)c1nc(-c2cccnc2)nc2ccccc12 [compound 11]
8,44.7,CN1Cc2ccc(CN(C)c3nc(-c4cccnc4)nc4ccccc34)cc2C1 [compound 13]
9,1.12,CN(Cc1nc2ccccc2s1)c1nc(-c2cccnc2)nc2ccccc12 [compound 14]
10,3.13,COc1ccccc1CN(C)c1nc(-c2cccnc2)nc2ccccc12 [compound 16]
11,1.56,CN(Cc1ccc2ccccc2c1)c1nc(-c2cccnc2)nc2ccccc12 [compound 17]
12,11.2,CN(Cc1nc2ccccc2o1)c1nc(-c2cccnc2)nc2ccccc12 [compound 18]
13,3.55,CN(Cc1ccc2nsnc2c1)c1nc(-c2cccnc2)nc2ccccc12 [compound 21]
14,10,CC(C)(C)OC(=O)N1CCN(c2nc(-c3cccnc3)nc3ccccc23)CC1 [compound 22]
15,2,CN(Cc1scc2c1OCCO2)c1nc(-c2cccnc2)nc2ccccc12 [compound 24]
16,35.5,CC(C)Cc1noc(CN(C)c2nc(-c3cccnc3)nc3ccccc23)n1 [compound 25]
17,1,Cc1ccc(S(=O)(=O)N2CCN(c3nc(-c4cccnc4)nc4ccccc34)CC2)cc1 [compound 26]
18,0.6,c1cncc(-c2nc(NCCC3COc4ccccc4O3)c3ccccc3n2)c1 (centres unmarked) [compound 27]
19,2.82,CCN(CC1COc2ccccc2O1)c1nc(-c2cccnc2)nc2ccccc12 (centres unmarked) [compound 28]
20,3.13,c1cncc(-c2nc(N3CCN(CC4COc5ccccc5O4)CC3)c3ccccc3n2)c1 (centres unmarked) [compound 30]
21,19.9,CN(Cc1ccc(-n2ccnc2)cc1)c1nc(-c2cccnc2)nc2ccccc12 [compound 31]
22,3.16,CN(CCC1COc2ccccc2O1)c1nc(-c2cccnc2)nc2ccccc12 (centres unmarked) [compound 32]
23,39.8,CN1CCN(c2ccc(CNc3nc(-c4cccnc4)nc4ccccc34)cc2)CC1 [compound 36]
24,5.01,CN(c1nc(-c2cccnc2)nc2ccccc12)C1CCCCC1 [compound 56]
25,4.47,CN(CCc1cccc(F)c1)c1nc(-c2cccnc2)nc2ccccc12 [compound 59]
26,2,Nc1ccc(CCNc2nc(-c3cccnc3)nc3ccccc23)cc1 [compound 71]
27,2.24,c1ccc(CC2CCCCN2c2nc(-c3cccnc3)nc3ccccc23)cc1 (centres unmarked) [compound 83]
28,2.51,c1ccc(CC2CCCN(c3nc(-c4cccnc4)nc4ccccc34)C2)cc1 (centres unmarked) [compound 87]

row,Compound,AC50 [µM]
1,CN(CC1COc2ccccc2O1)c1nc(-c2cccnc2)nc2ccccc12 (centres unmarked) [compound 3],1.78
2,CN(Cc1ccc2c(c1)OCCO2)c1nc(-c2cccnc2)nc2ccccc12 [compound 19],3.98
3,c1cncc(-c2nc(N3C4CCC3CC4)c3ccccc3n2)c1 [compound 64],2.24

# Same assay, conditions: cells marked activator
row,"Activity AC50 or IC50 (μM unless nM indicated): AC50, activator",Compound
1,Weak activator,CN(c1nc(-c2cccnc2)nc2ccccc12)C1Cc2ccc(C#CCCCCCCCCC(=O)ON3C(=O)CCC3=O)cc2C1 (centres unmarked) [compound 105]
2,Weak activator,COC(=O)CCCCCCCCC#Cc1ccc(OCCN(C)c2nc(-c3cccnc3)nc3ccccc23)cc1 [compound 109]
3,Weak activator,CN(CCOc1ccc(C#CCOCCOCCNc2nc(-c3cccnc3)nc3ccccc23)cc1)c1nc(-c2cccnc2)nc2ccccc12 [compound 110]
4,Weak activator,CN(CCCCCCCCCCN(C)c1nc(-c2cccnc2)nc2ccccc12)c1nc(-c2cccnc2)nc2ccccc12 [compound 112]
5,Weak activator,c1cncc(-c2nc(N3CCCOCC3)c3ccccc3n2)c1 [compound 116]
6,Weak activator,CN(c1nc(-c2cccnc2)nc2ccccc12)C1CCCCCCC1 [compound 123]

# Same assay, conditions: cells marked activator; read-out: Activity AC50 or IC50 (μM unless nM indicated): AC50, activator
row,AC50 [µM],Compound
1,0.62,Cc1ccc(OCCNc2nc(-c3cccnc3)nc3ccccc23)cc1 [compound 90]
2,35,CN(CCOc1ccc(C#CCCCCCCC#Cc2ccc(OCCN(C)c3nc(-c4cccnc4)nc4ccccc34)cc2)cc1)c1nc(-c2cccnc2)nc2ccccc12 [compound 111]
3,12.6,C#CCOCCOCCNc1nc(-c2cccnc2)nc2ccccc12 [compound 113]
4,7.94,c1cncc(-c2nc(N3CCOc4ccccc4C3)c3ccccc3n2)c1 [compound 115]
5,7.08,COC(=O)CCCCCCCCCCc1ccc(OCCN(C)c2nc(-c3cccnc3)nc3ccccc23)cc1 [compound 117]
6,22.4,CN(c1nc(-c2cccnc2)nc2ccccc12)C1CCCC1 [compound 118]
7,3.16,CN(CCCCc1ccccc1)c1nc(-c2cccnc2)nc2ccccc12 [compound 120]
8,8.91,CN(c1nc(-c2cccnc2)nc2ccccc12)C1CCCCCC1 [compound 121]
9,5.01,CN(CCc1ccccc1)c1nc(-c2cccnc2)nc2ccccc12 [compound 122]
10,10,CN(CCOc1ccccc1)c1nc(Cl)nc2ccccc12 [compound 124]
11,1.25,CN(CCOc1ccccc1)c1nc(-c2cncnc2)nc2ccccc12 [compound 127]
12,1.25,CN(CCOc1ccccc1)c1nc(-c2ccccc2F)nc2ccccc12 [compound 128]
13,3.98,CN(CCOc1ccccc1)c1nc(-c2ccncc2)nc2ccccc12 [compound 130]
14,31.6,CN(CCOc1ccccc1)c1nc(-c2ccco2)nc2ccccc12 [compound 133]
15,0.65,CN(CCOc1ccccc1)c1nc(-c2ccoc2)nc2ccccc12 [compound 134]
16,22.4,COc1ccccc1OCCN(C)c1nc(-c2cccnc2)nc2ccccc12 [compound 135]
17,3.55,Cc1ccc(OCCN(C)c2nc(-c3cccnc3)nc3ccccc23)cc1 [compound 136]
18,5.01,CN(CCCOc1ccccc1)c1nc(-c2cccnc2)nc2ccccc12 [compound 137]
19,5.62,CC(CN(C)c1nc(-c2cccnc2)nc2ccccc12)Oc1ccccc1 (centres unmarked) [compound 138]
